Experimental findings from the OligoGym collection are described below.

Oligonucleotides are written 5' to 3', each unit as a sugar letter and its base; * is a phosphorothioate linkage, no mark a phosphodiester; rarer units and linkages stand in square brackets, end groups in braces. Plain capitals give the bases only. d = 2'-deoxy (DNA); r = 2'-OH (RNA)
Note: test concentration or dose not given here.

The target of one data set is NOG. In words: reporter assay of Huesken 2005. The note with it: siRNA.
For “sense rArCrArUrUrCrUrGrCrCrCrCrGrUrGrCrUrGrUdTdT / antisense rArCrArGrCrArCrGrGrGrGrCrArGrArArUrGrUdCdT”, the normalised inhibition (eCFP-eYFP dual reporter) stood at 60%.
On the same count and under the same terms, the result for “sense rArCrCrUrCrArUrCrGrArArCrArCrCrCrArGrAdTdT / antisense rUrCrUrGrGrGrUrGrUrUrCrGrArUrGrArGrGrUdCdC” reads 102%.

Another data set deals with UBE2L6. In words: reporter assay of Huesken 2005. To be noted: siRNA.
On to “sense rCrArUrCrArGrCrArGrUrGrArGrArArCrUrGrGdTdT / antisense rCrCrArGrUrUrCrUrCrArCrUrGrCrUrGrArUrGdAdT”, for which the normalised inhibition (eCFP-eYFP dual reporter) amounted to 65.7%.
Same read-out and setting: the result for “sense rCrCrArCrCrCrCrArArCrGrUrGrGrArCrGrArGdTdT / antisense rCrUrCrGrUrCrCrArCrGrUrUrGrGrGrGrUrGrGdTdA” reads 67.6%; that for “sense rCrCrArUrArCrCrUrGrCrGrGrArArCrCrUrGrUdTdT / antisense rArCrArGrGrUrUrCrCrGrCrArGrGrUrArUrGrGdGdG”, 88.3%; that for “sense rCrCrCrArUrCrArUrCrArGrCrArGrUrGrArGrAdTdT / antisense rUrCrUrCrArCrUrGrCrUrGrArUrGrArUrGrGrGdCdA”, 74%.
Take “sense rCrCrCrArUrGrArUrCrArArArUrUrCrArCrArAdTdT / antisense rUrUrGrUrGrArArUrUrUrGrArUrCrArUrGrGrGdAdG”: the normalised inhibition (eCFP-eYFP dual reporter) was found to be 95.2%.
Same read-out and setting: the result for “sense rCrCrCrUrGrCrGrGrArUrGrGrArCrCrUrCrGrCdTdT / antisense rGrCrGrArGrGrUrCrCrArUrCrCrGrCrArGrGrGdGdC” reads 59.7%; that for “sense rCrCrGrArArGrArGrUrUrCrArCrCrCrUrCrCrGdTdT / antisense rCrGrGrArGrGrGrUrGrArArCrUrCrUrUrCrGrGdCdA”, 62.6%; that for “sense rCrCrGrArArUrArUrCrArGrGrGrArGrCrCrCrCdTdT / antisense rGrGrGrGrCrUrCrCrCrUrGrArUrArUrUrCrGrGdTdC”, 50%.
With “sense rCrCrUrArCrCrCrGrArCrCrArArCrCrUrCrCrCdTdT / antisense rGrGrGrArGrGrUrUrGrGrUrCrGrGrGrUrArGrGdAdG”, the normalised inhibition (eCFP-eYFP dual reporter) came out at 55.6%.
On the same count and under the same terms, the result for “sense rCrCrUrGrCrGrGrArUrGrGrArCrCrUrCrGrCrUdTdT / antisense rArGrCrGrArGrGrUrCrCrArUrCrCrGrCrArGrGdGdG” reads 81.8%.
Take “sense rCrCrUrGrUrCrCrArGrCrGrArUrGrArUrGrCrCdTdT / antisense rGrGrCrArUrCrArUrCrGrCrUrGrGrArCrArGrGdTdT”: the normalised inhibition (eCFP-eYFP dual reporter) was found to be 77.6%.
Still for that read-out and setting: the result for “sense rCrGrArUrGrArUrGrCrCrArArUrGrUrCrCrUrGdTdT / antisense rCrArGrGrArCrArUrUrGrGrCrArUrCrArUrCrGdCdT” reads 97.1%; that for “sense rCrGrCrUrCrUrCrCrUrCrCrUrArCrCrCrGrArCdTdT / antisense rGrUrCrGrGrGrUrArGrGrArGrGrArGrArGrCrGdTdG”, 73.7%; that for “sense rCrGrGrArUrGrGrArCrCrUrCrGrCrUrGrArCrCdTdT / antisense rGrGrUrCrArGrCrGrArGrGrUrCrCrArUrCrCrGdCdA”, 71.6%.
The same measure, in the same setting: the result for “sense rCrUrCrCrUrArCrCrCrGrArCrCrArArCrCrUrCdTdT / antisense rGrArGrGrUrUrGrGrUrCrGrGrGrUrArGrGrArGdGdA” reads 63.5%; that for “sense rCrUrGrArCrArCrArGrArArUrCrCrGrGrArGrCdTdT / antisense rGrCrUrCrCrGrGrArUrUrCrUrGrUrGrUrCrArGdCdA”, 79.6%; that for “sense rCrUrGrCrGrGrArArCrCrUrGrUrCrCrArGrCrGdTdT / antisense rCrGrCrUrGrGrArCrArGrGrUrUrCrCrGrCrArGdGdT”, 76.1%.
Still for that read-out and setting: the result for “sense rCrUrGrGrArGrGrCrCrCrUrCrArArUrGrUrGrCdTdT / antisense rGrCrArCrArUrUrGrArGrGrGrCrCrUrCrCrArGdGdA” reads 48.2%.
As for “sense rCrUrUrCrCrCrGrCrCrGrGrArGrUrArUrCrCrGdTdT / antisense rCrGrGrArUrArCrUrCrCrGrGrCrGrGrGrArArGdCdT”, the normalised inhibition (eCFP-eYFP dual reporter) is 38.1%.
On the same count and under the same terms, the result for “sense rCrUrUrGrCrArCrCrArArGrArCrUrUrGrCrCrAdTdT / antisense rUrGrGrCrArArGrUrCrUrUrGrGrUrGrCrArArGdGdC” reads 89.6%; that for “sense rGrArGrCrCrCrCrUrGrCrGrGrArUrGrGrArCrCdTdT / antisense rGrGrUrCrCrArUrCrCrGrCrArGrGrGrGrCrUrCdCdC”, 55.9%; that for “sense rGrArUrUrUrGrCrCrUrGrCrCrCrArUrCrArUrCdTdT / antisense rGrArUrGrArUrGrGrGrCrArGrGrCrArArArUrCdTdG”, 71.3%.
Consider “sense rGrCrGrArUrGrArUrGrCrCrArArUrGrUrCrCrUdTdT / antisense rArGrGrArCrArUrUrGrGrCrArUrCrArUrCrGrCdTdG”, for which the normalised inhibition (eCFP-eYFP dual reporter) stood at 107%.
The same measure, in the same setting: the result for “sense rGrGrArGrCrUrGrUrUrCrArGrArArArGrArArUdTdT / antisense rArUrUrCrUrUrUrCrUrGrArArCrArGrCrUrCrCdGdG” reads 108%; that for “sense rGrGrArGrUrArUrCrCrGrUrUrCrArArGrCrCrUdTdT / antisense rArGrGrCrUrUrGrArArCrGrGrArUrArCrUrCrCdGdG”, 84.6%.
Same read-out and setting: the result for “sense rGrGrArUrGrGrArCrCrUrCrGrCrUrGrArCrCrUdTdT / antisense rArGrGrUrCrArGrCrGrArGrGrUrCrCrArUrCrCdGdC” reads 80.5%; that for “sense rGrGrCrArCrGrCrUrCrUrCrCrUrCrCrUrArCrCdTdT / antisense rGrGrUrArGrGrArGrGrArGrArGrCrGrUrGrCrCdAdC”, 62.5%; that for “sense rGrUrCrCrUrGrGrUrGrUrGrGrCrArCrGrCrUrCdTdT / antisense rGrArGrCrGrUrGrCrCrArCrArCrCrArGrGrArCdAdT”, 74.2%.
Same read-out and setting: the result for “sense rGrUrGrArArUrArGrArCrCrGrArArUrArUrCrAdTdT / antisense rUrGrArUrArUrUrCrGrGrUrCrUrArUrUrCrArCdCdA” reads 89.9%; that for “sense rGrUrGrGrCrArCrGrCrUrCrUrCrCrUrCrCrUrAdTdT / antisense rUrArGrGrArGrGrArGrArGrCrGrUrGrCrCrArCdAdC”, 96.9%.
With “sense rGrUrUrCrArCrCrCrUrCrCrGrArUrUrCrGrGrAdTdT / antisense rUrCrCrGrArArUrCrGrGrArGrGrGrUrGrArArCdTdC”, the normalised inhibition (eCFP-eYFP dual reporter) is 61.1%.
With “sense rUrArCrCrArCrCrCrCrArArCrGrUrGrGrArCrGdTdT / antisense rCrGrUrCrCrArCrGrUrUrGrGrGrGrUrGrGrUrAdGdA”, the normalised inhibition (eCFP-eYFP dual reporter) was determined as 37.4%.
On the same count and under the same terms, the result for “sense rUrCrArArGrCrCrUrCrCrCrArUrGrArUrCrArAdTdT / antisense rUrUrGrArUrCrArUrGrGrGrArGrGrCrUrUrGrAdAdC” reads 86.7%; that for “sense rUrCrArArUrGrUrGrCrUrGrGrUrGrArArUrArGdTdT / antisense rCrUrArUrUrCrArCrCrArGrCrArCrArUrUrGrAdGdG”, 69.1%; that for “sense rUrCrArUrCrArGrCrArGrUrGrArGrArArCrUrGdTdT / antisense rCrArGrUrUrCrUrCrArCrUrGrCrUrGrArUrGrAdTdG”, 61.3%.
The same measure, in the same setting: the result for “sense rUrCrCrUrCrCrUrArCrCrCrGrArCrCrArArCrCdTdT / antisense rGrGrUrUrGrGrUrCrGrGrGrUrArGrGrArGrGrAdGdA” reads 49.5%.
Still for that read-out and setting: the result for “sense rUrCrCrUrGrGrArGrGrCrCrCrUrCrArArUrGrUdTdT / antisense rArCrArUrUrGrArGrGrGrCrCrUrCrCrArGrGrAdCdT” reads 74.2%; that for “sense rUrCrUrArCrCrArCrCrCrCrArArCrGrUrGrGrAdTdT / antisense rUrCrCrArCrGrUrUrGrGrGrGrUrGrGrUrArGrAdTdC”, 53%.
Turning to “sense rUrCrUrCrCrUrCrCrUrArCrCrCrGrArCrCrArAdTdT / antisense rUrUrGrGrUrCrGrGrGrUrArGrGrArGrGrArGrAdGdC”, the normalised inhibition (eCFP-eYFP dual reporter) came out at 79.9%.
Same read-out and setting: the result for “sense rUrGrArCrArCrArGrArArUrCrCrGrGrArGrCrUdTdT / antisense rArGrCrUrCrCrGrGrArUrUrCrUrGrUrGrUrCrAdGdC” reads 54.8%; that for “sense rUrGrCrCrGrArArGrArGrUrUrCrArCrCrCrUrCdTdT / antisense rGrArGrGrGrUrGrArArCrUrCrUrUrCrGrGrCrAdTdT”, 59.9%; that for “sense rUrGrGrArArGrCrCrUrUrGrCrArCrCrArArGrAdTdT / antisense rUrCrUrUrGrGrUrGrCrArArGrGrCrUrUrCrCrAdGdT”, 77.7%.
On to “sense rUrGrGrUrGrUrGrGrCrArCrGrCrUrCrUrCrCrUdTdT / antisense rArGrGrArGrArGrCrGrUrGrCrCrArCrArCrCrAdGdG”, for which the normalised inhibition (eCFP-eYFP dual reporter) turned out to be 89.5%.
Still for that read-out and setting: the result for “sense rUrGrUrGrCrUrGrGrUrGrArArUrArGrArCrCrGdTdT / antisense rCrGrGrUrCrUrArUrUrCrArCrCrArGrCrArCrAdTdT” reads 59%.
For the substance “sense rUrUrCrArArGrCrCrUrCrCrCrArUrGrArUrCrAdTdT / antisense rUrGrArUrCrArUrGrGrGrArGrGrCrUrUrGrArAdCdG”, the normalised inhibition (eCFP-eYFP dual reporter) is 71.2%.
Still for that read-out and setting: the result for “sense rUrUrCrArGrArArArGrArArUrGrCrCrGrArArGdTdT / antisense rCrUrUrCrGrGrCrArUrUrCrUrUrUrCrUrGrArAdCdA” reads 57.7%.
Same read-out and setting: the result for “sense rUrUrCrCrCrGrCrCrGrGrArGrUrArUrCrCrGrUdTdT / antisense rArCrGrGrArUrArCrUrCrCrGrGrCrGrGrGrArAdGdC” reads 43%.
